Measured values as given in the NIST ThermoML archive (doi:10.1016/j.fluid.2008.09.004).

Key:
[1] = xn = mol fraction of the nth substance listed; details: 101 kPa, Liquid, Vibrating tube method
[2] = molar heat capacity at constant pressure; xn = mol fraction of the nth substance listed; details: 101 kPa, Liquid, Small sample (50 mg) DSC
[3] = excess molar enthalpy (molar enthalpy of mixing); xn = mol fraction of the nth substance listed; details: 303.15 K, 101 kPa, Liquid, Calvet calorimetry

CCCCn1cc[n+](C)c1.O=S(=O)([O-])C(F)(F)F [1-butyl-3-methylimidazolium trifluoromethanesulfonate] + CCO
Details	mass density, [1] [kg/m3]	molar heat capacity at constant pressure, [2] [J/K/mol]
293.15 K, x1 = 0.0522	881	128.2
293.15 K, x1 = 0.0982	944.5	143.3
293.15 K, x1 = 0.1976	1041.9	175.3
293.15 K, x1 = 0.2999	1111.4	207.9
293.15 K, x1 = 0.3996	1160.3	237.9
293.15 K, x1 = 0.4973	1196.9	267.2
293.15 K, x1 = 0.5923	1225.3	295.7
293.15 K, x1 = 0.6898	1249.1	326.5
293.15 K, x1 = 0.7868	1268.5	355.5
293.15 K, x1 = 0.8756	1283.7	382.4
293.15 K, x1 = 0.9283	1291.6	399
298.15 K, x1 = 0.0522	876.7	130
298.15 K, x1 = 0.0982	940.2	144.9
298.15 K, x1 = 0.1976	1037.7	176.8
298.15 K, x1 = 0.2999	1107.2	209.2
298.15 K, x1 = 0.3996	1156.1	239.4
298.15 K, x1 = 0.4973	1192.8	268.9
298.15 K, x1 = 0.5923	1221.2	297.3
298.15 K, x1 = 0.6898	1245	328.2
298.15 K, x1 = 0.7868	1264.5	357.6
298.15 K, x1 = 0.8756	1279.7	384.5
298.15 K, x1 = 0.9283	1287.6	401.2
303.15 K, x1 = 0.0522	872.5	131.8
303.15 K, x1 = 0.0982	935.9	146.4
303.15 K, x1 = 0.1976	1033.4	178.3
303.15 K, x1 = 0.2999	1103	210.6
303.15 K, x1 = 0.3996	1152	240.9
303.15 K, x1 = 0.4973	1188.7	270.7
303.15 K, x1 = 0.5923	1217.2	299
303.15 K, x1 = 0.6898	1241	330
303.15 K, x1 = 0.7868	1260.5	359.9
303.15 K, x1 = 0.8756	1275.7	386.8
303.15 K, x1 = 0.9283	1283.7	403.7
308.15 K, x1 = 0.0522	868.2	133.8
308.15 K, x1 = 0.0982	931.7	148.2
308.15 K, x1 = 0.1976	1029.2	180
308.15 K, x1 = 0.2999	1098.8	212.1
308.15 K, x1 = 0.3996	1147.9	242.6
308.15 K, x1 = 0.4973	1184.7	272.6
308.15 K, x1 = 0.5923	1213.1	301
308.15 K, x1 = 0.6898	1237	332
308.15 K, x1 = 0.7868	1256.5	362.3
308.15 K, x1 = 0.8756	1271.7	389.3
308.15 K, x1 = 0.9283	1279.7	406.3
313.15 K, x1 = 0.0522	863.9	135.8
313.15 K, x1 = 0.0982	927.4	150
313.15 K, x1 = 0.1976	1025	181.7
313.15 K, x1 = 0.2999	1094.7	213.7
313.15 K, x1 = 0.3996	1143.8	244.3
313.15 K, x1 = 0.4973	1180.6	274.6
313.15 K, x1 = 0.5923	1209.1	303
313.15 K, x1 = 0.6898	1233	334.1
313.15 K, x1 = 0.7868	1252.5	364.8
313.15 K, x1 = 0.8756	1267.7	391.9
313.15 K, x1 = 0.9283	1275.8	409
318.15 K, x1 = 0.0522	859.5	138
318.15 K, x1 = 0.0982	923	152
318.15 K, x1 = 0.1976	1020.7	183.6
318.15 K, x1 = 0.2999	1090.5	215.4
318.15 K, x1 = 0.3996	1139.6	246.2
318.15 K, x1 = 0.4973	1176.5	276.8
318.15 K, x1 = 0.5923	1205	305.1
318.15 K, x1 = 0.6898	1229	336.4
318.15 K, x1 = 0.7868	1248.5	367.5
318.15 K, x1 = 0.8756	1263.8	394.6
318.15 K, x1 = 0.9283	1271.8	411.9

[3]
Details	excess molar enthalpy [kcal/mol]
x1 = 0.0987	0.23
x1 = 0.2029	0.363
x1 = 0.2948	0.416
x1 = 0.4016	0.424
x1 = 0.4928	0.406
x1 = 0.5952	0.353
x1 = 0.6832	0.291
x1 = 0.8026	0.199
x1 = 0.8759	0.129

CCOS(=O)(=O)[O-].CCn1cc[n+](C)c1 [1-ethyl-3-methylimidazolium ethyl sulfate] + CCO
Details	mass density, [1] [kg/m3]	molar heat capacity at constant pressure, [2] [J/K/mol]
293.15 K, x1 = 0.0157	813.7	114.9
293.15 K, x1 = 0.05	860	–
293.15 K, x1 = 0.0523	862.6	124.6
293.15 K, x1 = 0.0978	913.4	137.1
293.15 K, x1 = 0.0991	914.6	–
293.15 K, x1 = 0.1944	996	163.7
293.15 K, x1 = 0.3073	1063.7	194.6
293.15 K, x1 = 0.4109	1109.6	223.4
293.15 K, x1 = 0.5084	1143.2	250.8
293.15 K, x1 = 0.5927	1167	274.9
293.15 K, x1 = 0.6995	1191.8	305.4
293.15 K, x1 = 0.7883	1208.9	331.1
293.15 K, x1 = 0.8797	1223.9	357.4
293.15 K, x1 = 0.9388	1232.5	374.4
298.15 K, x1 = 0.0157	809.5	116.8
298.15 K, x1 = 0.05	855.9	–
298.15 K, x1 = 0.0523	858.5	126.2
298.15 K, x1 = 0.0978	909.4	138.5
298.15 K, x1 = 0.0991	910.6	–
298.15 K, x1 = 0.1944	992.1	165
298.15 K, x1 = 0.3073	1060	195.9
298.15 K, x1 = 0.4109	1105.9	224.8
298.15 K, x1 = 0.5084	1139.6	252.3
298.15 K, x1 = 0.5927	1163.4	276.5
298.15 K, x1 = 0.6995	1188.3	307.2
298.15 K, x1 = 0.7883	1205.4	333
298.15 K, x1 = 0.8797	1220.5	359.4
298.15 K, x1 = 0.9388	1229.1	376.5
303.15 K, x1 = 0.0157	805.3	118.6
303.15 K, x1 = 0.05	851.8	–
303.15 K, x1 = 0.0523	854.4	127.9
303.15 K, x1 = 0.0978	905.3	139.9
303.15 K, x1 = 0.0991	906.6	–
303.15 K, x1 = 0.1944	988.3	166.3
303.15 K, x1 = 0.3073	1056.3	197.2
303.15 K, x1 = 0.4109	1102.3	226.3
303.15 K, x1 = 0.5084	1136	254
303.15 K, x1 = 0.5927	1159.9	278.3
303.15 K, x1 = 0.6995	1184.8	309
303.15 K, x1 = 0.7883	1202	335
303.15 K, x1 = 0.8797	1217.1	361.6
303.15 K, x1 = 0.9388	1225.7	378.8
308.15 K, x1 = 0.0157	801	120.7
308.15 K, x1 = 0.05	847.7	–
308.15 K, x1 = 0.0523	850.3	129.7
308.15 K, x1 = 0.0978	901.3	141.6
308.15 K, x1 = 0.0991	902.6	–
308.15 K, x1 = 0.1944	984.4	167.7
308.15 K, x1 = 0.3073	1052.6	198.8
308.15 K, x1 = 0.4109	1098.7	227.9
308.15 K, x1 = 0.5084	1132.5	255.8
308.15 K, x1 = 0.5927	1156.4	280.3
308.15 K, x1 = 0.6995	1181.4	311.1
308.15 K, x1 = 0.7883	1198.5	337.2
308.15 K, x1 = 0.8797	1213.7	364
308.15 K, x1 = 0.9388	1222.3	381.3
313.15 K, x1 = 0.0157	796.7	122.8
313.15 K, x1 = 0.05	843.5	–
313.15 K, x1 = 0.0523	846.1	131.6
313.15 K, x1 = 0.0978	897.3	143.2
313.15 K, x1 = 0.0991	898.5	–
313.15 K, x1 = 0.1944	980.6	169.2
313.15 K, x1 = 0.3073	1048.8	200.4
313.15 K, x1 = 0.4109	1095	229.6
313.15 K, x1 = 0.5084	1128.9	257.6
313.15 K, x1 = 0.5927	1152.9	282.3
313.15 K, x1 = 0.6995	1177.9	313.3
313.15 K, x1 = 0.7883	1195.1	339.5
313.15 K, x1 = 0.8797	1210.2	366.5
313.15 K, x1 = 0.9388	1218.9	383.9
318.15 K, x1 = 0.0157	792.3	125
318.15 K, x1 = 0.05	839.2	–
318.15 K, x1 = 0.0523	841.9	133.6
318.15 K, x1 = 0.0978	893.2	145
318.15 K, x1 = 0.0991	894.4	–
318.15 K, x1 = 0.1944	976.6	170.9
318.15 K, x1 = 0.3073	1045.1	202.2
318.15 K, x1 = 0.4109	1091.4	231.5
318.15 K, x1 = 0.5084	1125.3	259.7
318.15 K, x1 = 0.5927	1149.3	284.5
318.15 K, x1 = 0.6995	1174.4	315.6
318.15 K, x1 = 0.7883	1191.7	342
318.15 K, x1 = 0.8797	1206.9	369.1
318.15 K, x1 = 0.9388	1215.5	386.7

[3]
Details	excess molar enthalpy [kcal/mol]
x1 = 0.0486	0.125
x1 = 0.1198	0.26
x1 = 0.1961	0.302
x1 = 0.2952	0.315
x1 = 0.3917	0.297
x1 = 0.4937	0.276
x1 = 0.6087	0.22
x1 = 0.7017	0.171
x1 = 0.7963	0.118
x1 = 0.8774	0.0731
